ChEMBL document CHEMBL1201862, “PubChem BioAssay data set” (2004)
Calls of active or inactive are those of the source.

Columns and labels:
[1] = ARNT/TACC3 interaction disruptors, potency, confirmation, biochemical, AlphaScreen, cherry-picked samples (AID 651703); type: functional, Homo sapiens;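 further: His-tagged ARNT PAS-B domain paired with GST-TACC3 E629A dimer coactivator fragment; potency of inhibitors that break up the complex and lower AlphaScreen signal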
[2] = target: Melanocortin receptor 4 (Homo sapiens, UniProt P32245); type: functional, cell-based;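 further: Cell-based assay with luminescence read-out, confirmatory dose-response testing for agonist activity of biased ligands at MC4R; human U2OS cells with tagged receptor and beta-arrestin; potency of agonists that increase receptor coupling to beta-arrestin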
[3] = system: INS1; experiment: beta cell apoptosis inhibitors, cytokine rescue, dose response, luminescence, retest (AID 449756); type: functional, cell-based; conditions: Rattus norvegicus;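 further: cell death triggered by IL-1 beta plus TNF-alpha plus IFN-gamma mixture; protective hits raise ATP signal compared with cytokine alone wells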
[4] = HEp-2 cell cytotoxicity, dose response, cytotoxicity control for RSV inhibitor project, HTS (AID 2410); type: functional; conditions: human respiratory syncytial virus
[5] = target: Protein Wnt-3a (Mus musculus, UniProt P27467); experiment: Wnt3a-driven reporter signaling inhibition, dose response, selectivity assay for Gli-SUFU antagonist project, Wnt-LIGHT cells, luminescence (AID 651570); type: functional; conditions: read-out: IC50_Mean;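 further: Wnt-LIGHT reporter cells stimulated with conditioned medium from Wnt3a-producing cells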
Protein Wnt-3a, sequence (P27467 whole entry): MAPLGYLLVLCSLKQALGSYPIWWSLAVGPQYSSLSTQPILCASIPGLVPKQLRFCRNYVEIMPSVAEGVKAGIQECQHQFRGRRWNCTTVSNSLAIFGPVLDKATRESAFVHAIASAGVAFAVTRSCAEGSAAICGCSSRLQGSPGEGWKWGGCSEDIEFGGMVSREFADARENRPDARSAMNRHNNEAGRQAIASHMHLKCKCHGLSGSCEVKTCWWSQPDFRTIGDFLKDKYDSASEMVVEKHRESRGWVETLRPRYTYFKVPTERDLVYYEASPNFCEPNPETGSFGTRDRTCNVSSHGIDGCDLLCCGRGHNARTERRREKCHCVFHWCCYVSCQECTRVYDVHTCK

Melanocortin receptor 4, sequence (P32245 whole entry): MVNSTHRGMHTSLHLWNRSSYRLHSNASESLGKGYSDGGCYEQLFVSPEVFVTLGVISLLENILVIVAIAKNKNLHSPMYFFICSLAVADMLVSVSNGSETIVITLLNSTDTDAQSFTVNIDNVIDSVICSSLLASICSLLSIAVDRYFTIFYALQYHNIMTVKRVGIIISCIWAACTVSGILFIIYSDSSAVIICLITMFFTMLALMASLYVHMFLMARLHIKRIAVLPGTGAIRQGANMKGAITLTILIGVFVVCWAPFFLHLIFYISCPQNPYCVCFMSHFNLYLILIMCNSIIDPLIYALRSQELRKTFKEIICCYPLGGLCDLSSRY

Cn1ccnc1-c1nc2ccccc2nc1O
AC50 [1]: 71.9 µM (active)

COc1ccc(NC(=O)Nc2nc(C(N)Cc3ccc(C(F)(F)F)cc3)cs2)cc1 (stereo not given)
EC50 [2]: > 89.2 µM (inactive)

Cc1ccc(Cl)cc1N1CCN(C(=O)CSc2nnc3n2C(C)(C)Cc2ccccc2-3)CC1
AC50 [3]: 5.01 µM (active)
CC50 [4]: < 0.1 µM (active)
IC50 [5]: 4.43 µM (active)
